US20260199426A1, “CYCLIC LIPOPEPTIDE ANTIBIOTIC COMPOUNDS FOR USE IN THE TREATMENT OF PROTEIN AGGREGATION DISEASE” (DEUTSCHES ZENTRUM FÜR NEURODEGENERATIVE ERKRANKUNGEN E. V., priority 2022, published 2026)
*1 amine or outer side, *2 acyl side, *3 side chain or, on linkers, in order; H or OH if unused. Where a SMILES comes first, the peptide text is derived from it. Bridges are numbered along the chain shown (N, C = ends). [ ]: non-standard residue; d: D form. The star is where a group is joined. ξ: configuration not given here. X2 = O=C(C(N[*:1])c1ccc(OC2OC(CO)C(O)C(O)C2OC2OC(CO)C(O)C(O)C2O)cc1)[*:2]; Octa(2Z,4E)dienoyl(7-Me) = CC(C)C/C=C/C=C\C(=O)*; ξPhg(3-Cl-4-OH) = NC(C(=O)O)c1ccc(O)c(Cl)c1; X1 = NC(=O)C(O[*:3])C(N[*:1])C(=O)[*:2]; Hpg = N[CH](C(=O)O)c1ccc(O)cc1; Orn = NCCC[CH](N)C(=O)O

Assays:
[1] = system: NM region of the Sup35 prion protein (NM-GFP) in HEK cells; format: cell-based, human
[2] = system: NM region of the Sup35 prion protein (HA-epitope tagged NM) in N2a cells; format: cell-based; settings: 500 nM NM fibrils, 24 h
[3] = system: 22 L scrapie prion infection of fibroblast cell clone L929 15.9 (PrP^Sc); format: cell-based
[4] = biological target: N-terminally acetylated alpha-synuclein (Asyn) (Homo sapiens, UniProt P37840); assay: Seeded α-synuclein aggregation assay (ThT fluorescence, TEM); format: biochemical
Protocol: (§1) (A, B) Thioflavin-T (ThT) fluorescence curves of N-terminally acetylated alpha-synuclein (Asyn) in the absence (cross) and presence of a 3-fold excess (white circles) of compound. […] Quantitative analysis of Asyn aggregation kinetics was performed by nonlinear regression with sigmoidal fitting to determine the midpoint value (Tm) of the fluorescence curve as well as the fluorescence span. Unpaired two-tailed t-test was performed to test the null hypothesis (p≤0.0332(*), p≤0.002(**), p≤0.0002 (***), p≤0.0001 (****)). […] (C) TEM imaging analysis of the compound/Asyn mixtures. Scale bars correspond to 200 nm.
as §1, with “ThT” for “Thioflavin-T (ThT)”, “circles or triangles)” for “circles)”
(A) ThT fluorescence curves of N-terminally acetylated alpha-synuclein (Asyn) in the absence (cross) and presence of a 3-fold excess (white circles) of compound. […] Quantitative analysis of Asyn aggregation kinetics was performed by nonlinear regression with sigmoidal fitting to determine the midpoint value (Tm) of the fluorescence curve as well as the fluorescence span.
Asyn protein stock solutions were prepared in 50 mM HEPES at pH 7.4 with 100 mM NaCl. Stocks of compounds were prepared in the same buffer (500 μM) or as 10 mM compound in DMSO. […] The microplate was likewise subjected to the incubation and fluorescence measurement program used in in vitro assay 1. After about 2-4 days of incubation, ThT fluorescence emission reached the maximal value and the Asyn fibril-containing mixture was collected as “fibril seed” mixture for subsequent Asyn aggregation experiments.

[5] = biological target: T1, amylin (human islet amyloid polypeptide or hIAPP) (Homo sapiens, UniProt P10997); assay: Amylin aggregation assay (ThT); format: biochemical; settings: 5 μM hIAPP monomers, various doses, 37° C.
T1 construct: 5 μM amylin (human islet amyloid polypeptide or hIAPP) monomers
T1 sequence (P10997 34-70 limits assumed): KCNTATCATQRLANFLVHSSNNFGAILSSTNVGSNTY

[6] = system: tau neurofibrillary tangles; assay: Formation of tau neurofibrillary tangles in mice; format: in vivo, mouse; settings: in feed from 3-4 weeks of age, approximately 9 months
[7] = system: spread of tau aggregates between nerve cells in PS19 mice; assay: Spreading of tau aggregates after intracerebral injection of tau fibrils in PS19 mice; format: in vivo, mouse; settings: in food from two months of age; tau fibril injection four weeks after start
[8] = system: Tau aggregation in HEK biosensor cells (TauRD^LM-GFP)
[9] = system: TGFBI peptide; assay: TGFBI peptide aggregation assay (ThT, TEM); settings: compound/TGFBI mixture
[10] = biological target: T2, 2N4R Tau (Homo sapiens, UniProt P10636); assay: Tau pelleting assay (SDS-PAGE of soluble fraction); settings: mole ratios 1:3 and 1:5
T2 sequence (P10636 1-441 isoform P10636-8): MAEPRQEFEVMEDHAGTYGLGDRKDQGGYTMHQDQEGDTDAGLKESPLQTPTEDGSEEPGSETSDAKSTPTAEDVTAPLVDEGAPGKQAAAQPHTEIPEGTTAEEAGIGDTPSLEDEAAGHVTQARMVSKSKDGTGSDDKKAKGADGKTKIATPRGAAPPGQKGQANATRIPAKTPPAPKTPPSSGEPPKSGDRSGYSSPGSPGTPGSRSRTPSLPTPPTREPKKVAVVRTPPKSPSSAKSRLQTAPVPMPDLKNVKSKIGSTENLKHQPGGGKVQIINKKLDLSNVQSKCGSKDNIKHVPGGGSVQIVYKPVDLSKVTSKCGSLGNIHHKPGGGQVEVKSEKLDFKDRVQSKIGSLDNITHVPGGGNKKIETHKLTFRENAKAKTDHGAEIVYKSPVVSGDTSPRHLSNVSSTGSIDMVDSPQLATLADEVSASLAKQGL

[11] = biological target: monomeric Tau (2N4R) (Homo sapiens, UniProt P10636)
Chain of monomeric Tau (2N4R) (P10636 1-441 isoform P10636-8): as above

[12] = biological target: pre-formed 2N4R Tau fibrils (Homo sapiens, UniProt P10636); assay: Tau fibril dissolution assay (pre-formed fibrils, ThT span, TEM); settings: mole ratios 1:0.3 and 1:1
Chain of pre-formed 2N4R Tau fibrils (P10636 1-441 isoform P10636-8): as above

[13] = system: Tau-induced degeneration of Drosophila eyes (GMR-Gal4/WT Tau); assay: Drosophila neurodegeneration model (Tau-induced eye degeneration); settings: oral in food from larvae stage to adult stage; 15, 30, and 44 μM
[14] = biological target: T2, 2N4R Tau; assay: Seeded Tau aggregation assay (ThT fluorescence, TEM of the fibrils formed); settings: Tau:Ramoplanin A2 mole ratios 1:3 and 1:5; lower Tm = faster aggregation
[15] = biological target: monomeric 2N4R Tau (Homo sapiens, UniProt P10636); assay: 1D 1H-NMR titration of Ramoplanin A2 with unlabeled 2N4R Tau (binding epitopes); settings: 200 μM Ramoplanin A2 : 30 μM Tau, 37° C.
Chain of monomeric 2N4R Tau (P10636 1-441 isoform P10636-8): as above

## CC(C)C/C=C/C=C\C(=O)NC(CC(N)=O)C(=O)NC1C(=O)NC(c2ccc(O)cc2)C(=O)NC(CCCN)C(=O)NC(C(C)O)C(=O)NC(c2ccc(O)cc2)C(=O)NC(c2ccc(O)cc2)C(=O)NC(C(C)O)C(=O)NC(Cc2ccccc2)C(=O)NC(CCCN)C(=O)NC(c2ccc(OC3OC(CO)C(O)C(O)C3OC3OC(CO)C(O)C(O)C3O)cc2)C(=O)NC(C(C)O)C(=O)NC(c2ccc(O)cc2)C(=O)NCC(=O)NC(CC(C)C)C(=O)NC(C)C(=O)NC(c2ccc(O)c(Cl)c2)C(=O)OC1C(N)=O (stereo not shown) [Ramoplanin A2] ({Octa(2Z,4E)dienoyl(7-Me)}-N[X1][Hpg][Orn]T[Hpg][Hpg]TF[Orn][X2]T[Hpg]GLA[ξPhg(3-Cl-4-OH)]; ester 2-C; configuration not given here)
[1]
  percent of cells with aggregates of the prion protein: reduced with increasing concentration
[2]
  percent of cells with aggregates of the prion protein: reduced with increasing concentration
[3]
  pathogenic prion protein PrP^Sc (proteinase K resistant, Western blot): reduction
[3]; 3 μM, 9 d
  total PrP (Western blot): reduction
[3]; 3 μM, 9 d, 1% 22 L scrapie brain homogenate
  prion infection in cellular model: prevents prion infection in cellular model
[4]; 3-fold excess of compound, 25 μM Asyn monomers, 1% (v/v) fibril seeds, 37° C.
  in vitro aggregation of alpha-synuclein (ThT fluorescence): inhibit the in vitro aggregation
[4]; compound/Asyn mixtures
  Asyn fibril morphology (TEM): shorter fibrils
[5]
  in vitro aggregation of amylin (final ThT fluorescence, t=50 h): inhibit the in vitro aggregation of amylin
[6]
  formation of tau neurofibrillary tangles: inhibits the formation of tau neurofibrillary tangles
[7]
  spread of tau aggregates between nerve cells and formation of new tau fibrils: hinders the spread of tau aggregates between nerve cells and the formation of new tau fibrils
[8]; induced by Tau^P301L fibrils, 0.25 μM to 40 μM, 48 hours, with or without lipofectamine
  Tau aggregate formation: decreased aggregate formation
[8]; induced by brain homogenate of PS19 mice, 0.25 μM to 26.5 μM, 24 hours, lipofectamine
  aggregation of Tau: inhibits the aggregation of Tau in HEK biosensor cells
[8]; induced by cell lysate containing Tau aggregates, 0.25 μM to 40 μM, 22 h, lipofectamine
  inhibition of seeded Tau aggregation: showed inhibition of seeded Tau aggregation
[8]; induced by cell lysate, 0.25 μM to 40 μM, 22 h, lipofectamine
  inhibition of seeded Tau aggregation, comparison among the tested compounds: strongest dose-dependent inhibition of seeded Tau aggregation
[9]
  TGFBI fibril morphology (TEM): shorter fibrils
[10]
  amount of soluble Tau (SDS-PAGE): increased
[11]; 18 μM 15N Tau, mole ratios 1:0.3 to 1:30
  binding to monomeric Tau (CSPs above ~0.0025 ppm with signal broadening I/I0<1): binding of Ramoplanin A2 to specific regions/residues in the monomeric form of Tau
[11]; 10-fold excess of Ramoplanin A2
  conformational state of Tau (chemical shift dispersion along 1H dimension): Tau remains disordered
[12]
  dissolution of Tau fibrils: not dissolved
[13]
  percent degeneration of Drosophila eyes: lowers the percent degeneration of Drosophila eyes
[14]
  midpoint values (Tm) of the fluorescence curves: accelerates Tau fibrillization
[15]
  involvement of the peptide backbone of Ramoplanin A2 in binding (proton CSPs): involved in binding to monomeric Tau
